Measured values published in US11629171B2, “Beta-hairpin peptidomimetics” (POLYPHOR AG, priority 2017, dated 2023).
Values after ≈ are worked out from the molar mass of the structure shown. Where a SMILES comes first, the peptide text is derived from it. Bridges are numbered along the chain shown (N, C = ends). Roman numbers before positions name the chains, in order. [ ]: non-standard residue; d: D form. Tle = CC(C)(C)[C@H](N)C(=O)O; d(hSer) = N[C@H](CCO)C(=O)O; Hiv = CC(C)[C@H](O)C(=O)O; dDab = NCC[C@@H](N)C(=O)O; hSer = N[C@@H](CCO)C(=O)O; Orn = NCCC[C@H](N)C(=O)O; Dab = NCC[C@H](N)C(=O)O; Dap = NC[C@H](N)C(=O)O

Legend:
Assay type in all cases: cell-based
[1] = system: human red blood cells (hRBC); test: Hemolysis; conditions: red cells of human, 1 h, 200
Procedure, shortened: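 Hemoglobin release from PBS-washed hRBC at 20% (v/v), incubated 1 h at 37° C with peptides at 200 μg/mL, is measured at 540 nm. Values are blank corrected and given as a fraction of Triton X-100 lysis × 100%.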

Escherichia coli 926415 = conditions: 926415
Protocol: (§1) The in vitro antimicrobial activities of the peptides were determined in 96-well plates (Greiner, polystyrene) by the standard CLSI broth microdilution method (Clinical and Laboratory Standards Institute 2014. Performance standards for antimicrobial susceptibility testing, 24th informational supplement. Approved standard CLSI M100-S24; Clinical and Laboratory Standards Institute, Wayne, Pa.). The following microorganisms were used to determine antibiotic activity of the peptides: Escherichia coli ATCC 25922, Klebsiella pneumoniae SSI #3010^a), Acinetobacter baumannii DSM 30008, Pseudomonas aeruginosa ATCC 27853 and the clinical isolates Escherichia coli 926415^b), Klebsiella pneumoniae 968733^b), Acinetobacter baumannii 872842^b), Enterobacter cloacae 848840^b) and Escherichia coli MCR-1 Af45^c). Before preparation of inocula, Escherichia coli MCR-1 Af45 was subcultured on Mueller-Hinton II (MH-cation adjusted) agar containing 2 μg/mL colistin. ^a) Obtained from Statens Serum Institut (SSI), Copenhagen, Denmark^b) Obtained from International Health Management Associates, Inc. (IHMA Europe Sàrl), Epalinges, Switzerland^c) Obtained from Prof. Patrice Nordmann, University of Fribourg, Fribourg, Switzerland
(§2) Inocula of the microorganisms were diluted into Mueller-Hinton II (MH-cation adjusted) broth and compared with a 0.5 McFarland standard to give appr. 10^6 colony forming units (CFU)/mL. Aliquots (90 μL) of inoculum were added to 10 μL of MH-II broth+P-80 (Polysorbate 80, 0.002% final concentration, v/v) containing the peptide in serial two-fold dilutions. Antimicrobial activities of the peptides were expressed as the minimal inhibitory concentration (MIC) in μg/mL at which no visible growth was observed after 18-20 hours of incubation at 35° C.

[2] = system: Acinetobacter baumannii 872842; conditions: 872842
Protocol: as §1, §2

[3] = system: Klebsiella pneumoniae 968733; conditions: 968733
Protocol: as §1, §2

[4] = system: Klebsiella pneumoniae SSI #3010; conditions: SSI #3010
Protocol: as §1, §2

[5] = system: Pseudomonas aeruginosa ATCC 27853; conditions: ATCC 27853
Protocol: as §1, §2

[6] = system: Enterobacter cloacae 848840; conditions: 848840
Protocol: as §1, §2

[7] = system: Escherichia coli ATCC 25922; conditions: ATCC 25922
Protocol: as §1, §2

[8] = system: Acinetobacter baumannii DSM 30008; conditions: DSM 30008
Protocol: as §1, §2

Compound | MIC (Escherichia coli 926415) [µg/mL] | MIC [2] [µg/mL] | MIC [3] [µg/mL] | MIC [4] [µg/mL] | MIC [5] [µg/mL] | MIC [6] [µg/mL] | MIC [7] [µg/mL] | MIC [8] [µg/mL] | Hemolysis at 200 μg/mL [1] [%]
CC(=O)N[C@H](C(=O)N[C@H]1CCCNC(=O)[C@@H](CCC(N)=O)NC(=O)[C@H](C(C)(C)C)NC(=O)[C@H](CO)NC(=O)[C@H](Cc2c[nH]c3ccccc23)NC(=O)[C@H](CCO)NC(=O)[C@@H](CCN)NC(=O)[C@H](CCC(=O)N[C@@H](CCN)C(=O)N[C@H](C(=O)N[C@@H](CN)C(=O)N[C@H]2CCNC(=O)[C@H]([C@@H](C)O)NC(=O)[C@H](CCN)NC(=O)[C@H](CCN)NC(=O)[C@H](CC(C)C)NC(=O)[C@@H](CC(C)C)NC(=O)[C@H](CCN)NC2=O)[C@@H](C)O)NC(=O)[C@H](CO)NC(=O)[C@H](Cc2ccc(O)cc2)NC1=O)C(C)C [Ex. 20] (I: Ac-V[Orn]YSE[dDab][hSer]WS[Tle][dQ] / II: [Dab]T[Dap][Dab][Dab][dL]L[Dab][Dab]T; lactam I:2-I:C, II:4-II:C; amide I:5-II:N) | 1 (≈ 0.426 µM) | 0.5 (≈ 0.213 µM) | 2 (≈ 0.852 µM) | 0.125 (≈ 0.0532 µM) | 0.25 (≈ 0.106 µM) | 0.25 (≈ 0.106 µM) | 0.125 (≈ 0.0532 µM) | 0.125 (≈ 0.0532 µM) | <1
CC(=O)N[C@H](C(=O)N[C@H]1CCCNC(=O)[C@@H](CCC(=O)O)NC(=O)[C@H](C(C)(C)C)NC(=O)[C@H](CO)NC(=O)[C@H](Cc2c[nH]c3ccccc23)NC(=O)[C@H](CCO)NC(=O)[C@@H](CCN)NC(=O)[C@H](CCC(=O)N[C@@H](CCN)C(=O)N[C@H](C(=O)N[C@@H](CN)C(=O)N[C@H]2CCNC(=O)[C@H]([C@@H](C)O)NC(=O)[C@H](CCN)NC(=O)[C@H](CCN)NC(=O)[C@H](CC(C)C)NC(=O)[C@@H](CC(C)C)NC(=O)[C@H](CCN)NC2=O)[C@@H](C)O)NC(=O)[C@H](CO)NC(=O)[C@H](Cc2ccc(O)cc2)NC1=O)C(C)C [Ex. 21] (I: Ac-V[Orn]YSE[dDab][hSer]WS[Tle][dE] / II: [Dab]T[Dap][Dab][Dab][dL]L[Dab][Dab]T; lactam I:2-I:C, II:4-II:C; amide I:5-II:N) | 8 (≈ 3.41 µM) | 2 (≈ 0.852 µM) | 8 (≈ 3.41 µM) | 0.5 (≈ 0.213 µM) | 0.5 (≈ 0.213 µM) | 0.5 (≈ 0.213 µM) | 0.25 (≈ 0.106 µM) | 0.5 (≈ 0.213 µM) | <1
CC(=O)N[C@H](C(=O)N[C@H]1CCCNC(=O)[C@@H](CCO)NC(=O)[C@H](C(C)(C)C)NC(=O)[C@H](CO)NC(=O)[C@H](Cc2c[nH]c3ccccc23)NC(=O)[C@H](CCO)NC(=O)[C@@H](CCN)NC(=O)[C@H](CCC(=O)N[C@@H](CCN)C(=O)N[C@H](C(=O)N[C@@H](CN)C(=O)N[C@H]2CCNC(=O)[C@H]([C@@H](C)O)NC(=O)[C@H](CCN)NC(=O)[C@H](CCN)NC(=O)[C@H](CC(C)C)NC(=O)[C@@H](CC(C)C)NC(=O)[C@H](CCN)NC2=O)[C@@H](C)O)NC(=O)[C@H](CO)NC(=O)[C@H](Cc2ccc(O)cc2)NC1=O)C(C)C [Ex. 22] (I: Ac-V[Orn]YSE[dDab][hSer]WS[Tle][d(hSer)] / II: [Dab]T[Dap][Dab][Dab][dL]L[Dab][Dab]T; lactam I:2-I:C, II:4-II:C; amide I:5-II:N) | 0.5 (≈ 0.215 µM) | 0.25 (≈ 0.108 µM) | 1 (≈ 0.431 µM) | 0.125 (≈ 0.0539 µM) | 0.5 (≈ 0.215 µM) | 0.125 (≈ 0.0539 µM) | 0.0625 (≈ 0.0269 µM) | 0.0625 (≈ 0.0269 µM) | <1

Now from value to compound, other results behind:

MIC (Escherichia coli 926415) [µg/mL] | MIC [2] [µg/mL] | MIC [3] [µg/mL] | MIC [4] [µg/mL] | MIC [5] [µg/mL] | MIC [6] [µg/mL] | MIC [7] [µg/mL] | MIC [8] [µg/mL] | Compound | Hemolysis at 200 μg/mL [1] [%]
0.25 (≈ 0.108 µM) | 0.25 (≈ 0.108 µM) | 0.5 (≈ 0.215 µM) | 0.125 (≈ 0.0539 µM) | 0.25 (≈ 0.108 µM) | 0.125 (≈ 0.0539 µM) | 0.0625 (≈ 0.0269 µM) | 0.0625 (≈ 0.0269 µM) | CC(=O)N[C@H](C(=O)N[C@H]1CCCNC(=O)[C@@H]([C@H](C)O)NC(=O)[C@H](C(C)(C)C)NC(=O)[C@H](CO)NC(=O)[C@H](Cc2c[nH]c3ccccc23)NC(=O)[C@H](CCO)NC(=O)[C@@H](CCN)NC(=O)[C@H](CCC(=O)N[C@@H](CCN)C(=O)N[C@H](C(=O)N[C@@H](CN)C(=O)N[C@H]2CCNC(=O)[C@H]([C@@H](C)O)NC(=O)[C@H](CCN)NC(=O)[C@H](CCN)NC(=O)[C@H](CC(C)C)NC(=O)[C@@H](CC(C)C)NC(=O)[C@H](CCN)NC2=O)[C@@H](C)O)NC(=O)[C@H](CO)NC(=O)[C@H](Cc2ccc(O)cc2)NC1=O)C(C)C [Ex. 18] (I: Ac-V[Orn]YSE[dDab][hSer]WS[Tle][dT] / II: [Dab]T[Dap][Dab][Dab][dL]L[Dab][Dab]T; lactam I:2-I:C, II:4-II:C; amide I:5-II:N) | 1
0.5 (≈ 0.217 µM) | 0.25 (≈ 0.108 µM) | 0.5 (≈ 0.217 µM) | 0.125 (≈ 0.0542 µM) | 0.25 (≈ 0.108 µM) | 0.125 (≈ 0.0542 µM) | 0.0625 (≈ 0.0271 µM) | 0.0625 (≈ 0.0271 µM) | CC(=O)N[C@H](C(=O)N[C@H]1CCCNC(=O)[C@@H]([C@H](C)O)NC(=O)[C@H](C(C)(C)C)NC(=O)[C@H](CO)NC(=O)[C@H](Cc2c[nH]c3ccccc23)NC(=O)[C@H](CO)NC(=O)[C@@H](CCN)NC(=O)[C@H](CCC(=O)N[C@@H](CCN)C(=O)N[C@H](C(=O)N[C@@H](CN)C(=O)N[C@H]2CCNC(=O)[C@H]([C@@H](C)O)NC(=O)[C@H](CCN)NC(=O)[C@H](CCN)NC(=O)[C@H](CC(C)C)NC(=O)[C@@H](CC(C)C)NC(=O)[C@H](CCN)NC2=O)[C@@H](C)O)NC(=O)[C@H](CO)NC(=O)[C@H](Cc2ccc(O)cc2)NC1=O)C(C)C [Ex. 23] (I: Ac-V[Orn]YSE[dDab]SWS[Tle][dT] / II: [Dab]T[Dap][Dab][Dab][dL]L[Dab][Dab]T; lactam I:2-I:C, II:4-II:C; amide I:5-II:N) | <1
2 (≈ 0.877 µM) | 1 (≈ 0.439 µM) | 0.5 (≈ 0.219 µM) | 0.125 (≈ 0.0548 µM) | 0.25 (≈ 0.11 µM) | 0.25 (≈ 0.11 µM) | 0.125 (≈ 0.0548 µM) | 0.125 (≈ 0.0548 µM) | CC(C)C[C@@H]1NC(=O)[C@@H](CC(C)C)NC(=O)[C@H](CCN)NC(=O)[C@@H](NC(=O)[C@H](CN)NC(=O)[C@@H](NC(=O)[C@H](CCN)NC(=O)CC[C@@H]2NC(=O)[C@H](CO)NC(=O)[C@H](Cc3ccc(O)cc3)NC(=O)[C@@H](NC(=O)[C@@H](O)C(C)C)CCCNC(=O)[C@@H]([C@H](C)O)NC(=O)[C@H](C(C)(C)C)NC(=O)[C@H](CO)NC(=O)[C@H](Cc3c[nH]c4ccccc34)NC(=O)[C@H](CCO)NC(=O)[C@@H](CCN)NC2=O)[C@@H](C)O)CCNC(=O)[C@H]([C@@H](C)O)NC(=O)[C@H](CCN)NC(=O)[C@H](CCN)NC1=O [Ex. 24] (I: H-[Hiv][Orn]YSE[dDab][hSer]WS[Tle][dT] / II: [Dab]T[Dap][Dab][Dab][dL]L[Dab][Dab]T; lactam I:2-I:C, II:4-II:C; amide I:5-II:N) | <1
0.25 (≈ 0.108 µM) | 0.25 (≈ 0.108 µM) | 0.25 (≈ 0.108 µM) | 0.125 (≈ 0.0539 µM) | 0.25 (≈ 0.108 µM) | 0.125 (≈ 0.0539 µM) | 0.0625 (≈ 0.0269 µM) | 0.0625 (≈ 0.0269 µM) | CC(=O)N[C@H](C(=O)N[C@H]1CCCNC(=O)[C@@H]([C@H](C)O)NC(=O)[C@H](C(C)(C)C)NC(=O)[C@H](CO)NC(=O)[C@H](Cc2c[nH]c3ccccc23)NC(=O)[C@H](CCN)NC(=O)[C@@H](CCN)NC(=O)[C@H](CCC(=O)N[C@@H](CCN)C(=O)N[C@H](C(=O)N[C@@H](CN)C(=O)N[C@H]2CCNC(=O)[C@H]([C@@H](C)O)NC(=O)[C@H](CCN)NC(=O)[C@H](CCN)NC(=O)[C@H](CC(C)C)NC(=O)[C@@H](CC(C)C)NC(=O)[C@H](CCN)NC2=O)[C@@H](C)O)NC(=O)[C@H](CO)NC(=O)[C@H](Cc2ccc(O)cc2)NC1=O)C(C)C [Ex. 25] (I: Ac-V[Orn]YSE[dDab][Dab]WS[Tle][dT] / II: [Dab]T[Dap][Dab][Dab][dL]L[Dab][Dab]T; lactam I:2-I:C, II:4-II:C; amide I:5-II:N) | <1
